Test results from ChEMBL document CHEMBL1255386, “Early viral kinetics of telbivudine and entecavir: results of a 12-week randomized exploratory study with patients with HBeAg-positive chronic hepatitis B” (Antimicrob Agents Chemother, 2010).

How the values were obtained:
[1] = system: Hepatitis B virus; test: Antiviral activity against Hepatitis B virus in HBeAg-positive chronic hepatitis B patient assessed as mean rate of infected cell loss at 0.5 mg/day; format: functional
[2] = system: Hepatitis B virus; test: Antiviral activity against Hepatitis B virus in HBeAg-positive chronic hepatitis B patient assessed as mean viral clearance rate at 0.5 mg/day; format: functional
[3] = species: Homo sapiens; test: Toxicity in HBeAg-positive chronic hepatitis B patient assessed as abdominal discomfort at 0.5 mg/day; format: organism-based, Abdomen; settings: in vivo
[4] = species: Homo sapiens; test: Toxicity in HBeAg-positive chronic hepatitis B patient assessed as muscular weakness at 0.5 mg/day; format: organism-based; settings: in vivo
[5] = species: Homo sapiens; test: Toxicity in HBeAg-positive chronic hepatitis B patient assessed as vaginal hemorrhage at 0.5 mg/day; format: organism-based; settings: in vivo
[6] = species: Homo sapiens; test: Toxicity in HBeAg-positive chronic hepatitis B patient assessed as dyspnea at 0.5 mg/day; format: organism-based; settings: in vivo
[7] = species: Homo sapiens; test: Toxicity in HBeAg-positive chronic hepatitis B patient assessed as gingival bleeding at 0.5 mg/day; format: organism-based; settings: in vivo
[8] = species: Homo sapiens; test: Toxicity in HBeAg-positive chronic hepatitis B patient assessed as vomiting at 0.5 mg/day; format: organism-based; settings: in vivo
[9] = species: Homo sapiens; test: Toxicity in HBeAg-positive chronic hepatitis B patient assessed as insomnia at 0.5 mg/day; format: organism-based; settings: in vivo
[10] = species: Homo sapiens; test: Toxicity in HBeAg-positive chronic hepatitis B patient assessed as upper abdominal pain at 0.5 mg/day; format: organism-based, Abdomen; settings: in vivo
[11] = species: Homo sapiens; test: Toxicity in HBeAg-positive chronic hepatitis B patient assessed as increase in AST level at 0.5 mg/day; format: organism-based; settings: in vivo
[12] = species: Homo sapiens; test: Toxicity in HBeAg-positive chronic hepatitis B patient assessed as myringitis at 0.5 mg/day; format: organism-based; settings: in vivo
[13] = species: Homo sapiens; test: Toxicity in HBeAg-positive chronic hepatitis B patient assessed as neutropenia at 0.5 mg/day; format: organism-based; settings: in vivo
[14] = species: Homo sapiens; test: Toxicity in HBeAg-positive chronic hepatitis B patient assessed as headache at 0.5 mg/day; format: organism-based; settings: in vivo
[15] = species: Homo sapiens; test: Toxicity in HBeAg-positive chronic hepatitis B patient assessed as hyperphosphatemia at 0.5 mg/day; format: organism-based; settings: in vivo
[16] = species: Homo sapiens; test: Toxicity in HBeAg-positive chronic hepatitis B patient assessed as peripheral neuropathy at 0.5 mg/day; format: organism-based; settings: in vivo
[17] = species: Homo sapiens; test: Toxicity in HBeAg-positive chronic hepatitis B patient assessed as nausea at 0.5 mg/day; format: organism-based; settings: in vivo
[18] = species: Homo sapiens; test: Toxicity in HBeAg-positive chronic hepatitis B patient assessed as increase in blood CK level at 0.5 mg/day; format: organism-based; settings: in vivo
[19] = species: Homo sapiens; test: Toxicity in HBeAg-positive chronic hepatitis B patient assessed as increase in ALT level at 0.5 mg/day; format: organism-based; settings: in vivo
[20] = species: Homo sapiens; test: Toxicity in HBeAg-positive chronic hepatitis B patient assessed as upper respiratory tract infection at 0.5 mg/day; format: organism-based; settings: in vivo
[21] = species: Homo sapiens; test: Hepatotoxicity in HBeAg-positive chronic hepatitis B patient assessed as reduction in alanine aminotransferase level at 0.5 mg/day after 12 weeks (reference value: 170.2 IU/liter); format: toxicity, organism-based; settings: in vivo, 2016 h
[22] = system: Hepatitis B virus; test: Antiviral activity against Hepatitis B virus in HBeAg-positive chronic hepatitis B patient assessed as mean efficiency factor of blocking virus production at 0.5 mg/day; format: functional
[23] = system: Homo sapiens; test: Toxicity in HBeAg-positive chronic hepatitis B patient assessed as facial edema at 0.5 mg/day; format: organism-based; settings: in vivo
[24] = system: Hepatitis B virus; test: Antiviral activity against Hepatitis B virus in HBeAg-positive chronic hepatitis B patient assessed as HBV DNA level in serum at 600 mg/day after 12 weeks (reference value: 10.29 log10copies/ml); format: functional
[25] = species: Homo sapiens; test: Toxicity in HBeAg-positive chronic hepatitis B patient assessed as nasophayngitis at 0.5 mg/day; format: organism-based; settings: in vivo
[26] = species: Homo sapiens; test: Toxicity in HBeAg-positive chronic hepatitis B patient assessed as myalgia at 0.5 mg/day; format: organism-based; settings: in vivo
[27] = species: Homo sapiens; test: Toxicity in HBeAg-positive chronic hepatitis B patient assessed as chest discomfort at 0.5 mg/day; format: organism-based; settings: in vivo
[28] = species: Homo sapiens; test: Toxicity in HBeAg-positive chronic hepatitis B patient assessed as proteinuria at 0.5 mg/day; format: organism-based; settings: in vivo
[29] = species: Homo sapiens; test: Toxicity in HBeAg-positive chronic hepatitis B patient assessed as thrombocytopenia at 0.5 mg/day; format: organism-based; settings: in vivo
[30] = species: Homo sapiens; test: Toxicity in HBeAg-positive chronic hepatitis B patient assessed as hordeolum at 0.5 mg/day; format: organism-based; settings: in vivo
[31] = species: Homo sapiens; test: Toxicity in HBeAg-positive chronic hepatitis B patient assessed as conjunctival hypermia at 0.5 mg/day; format: organism-based, Conjunctiva; settings: in vivo
[32] = species: Homo sapiens; test: Toxicity in HBeAg-positive chronic hepatitis B patient assessed as upper respiratory tract infection at 600 mg/day; format: organism-based; settings: in vivo
[33] = species: Homo sapiens; test: Toxicity in HBeAg-positive chronic hepatitis B patient assessed as neutropenia at 600 mg/day; format: organism-based; settings: in vivo
[34] = species: Homo sapiens; test: Toxicity in HBeAg-positive chronic hepatitis B patient assessed as hordeolum at 600 mg/day; format: organism-based; settings: in vivo
[35] = system: Hepatitis B virus; test: Antiviral activity against Hepatitis B virus in HBeAg-positive chronic hepatitis B patient assessed as HBV DNA level in serum at 0.5 mg/day after 12 weeks (reference value: 9.72 log10copies/ml); format: functional
[36] = species: Homo sapiens; test: Toxicity in HBeAg-positive chronic hepatitis B patient assessed as myringitis at 600 mg/day; format: organism-based; settings: in vivo
[37] = species: Homo sapiens; test: Toxicity in HBeAg-positive chronic hepatitis B patient assessed as myalgia at 600 mg/day; format: organism-based; settings: in vivo
[38] = species: Homo sapiens; test: Toxicity in HBeAg-positive chronic hepatitis B patient assessed as dyspnea at 600 mg/day; format: organism-based; settings: in vivo
[39] = species: Homo sapiens; test: Toxicity in HBeAg-positive chronic hepatitis B patient assessed as headache at 600 mg/day; format: organism-based; settings: in vivo
[40] = species: Homo sapiens; test: Toxicity in HBeAg-positive chronic hepatitis B patient assessed as peripheral neuropathy at 600 mg/day; format: organism-based; settings: in vivo
[41] = species: Homo sapiens; test: Toxicity in HBeAg-positive chronic hepatitis B patient assessed as abdominal discomfort at 600 mg/day; format: organism-based, Abdomen; settings: in vivo
[42] = species: Homo sapiens; test: Toxicity in HBeAg-positive chronic hepatitis B patient assessed as increase in AST level at 600 mg/day; format: organism-based; settings: in vivo
[43] = system: Hepatitis B virus; test: Antiviral activity against Hepatitis B virus in HBeAg-positive chronic hepatitis B patient assessed as mean rate of infected cell loss at 600 mg/day; format: functional
[44] = species: Homo sapiens; test: Toxicity in HBeAg-positive chronic hepatitis B patient assessed as hyperphosphatemia at 600 mg/day; format: organism-based; settings: in vivo
[45] = species: Homo sapiens; test: Toxicity in HBeAg-positive chronic hepatitis B patient assessed as nasophayngitis at 600 mg/day; format: organism-based; settings: in vivo
[46] = species: Homo sapiens; test: Toxicity in HBeAg-positive chronic hepatitis B patient assessed as thrombocytopenia at 600 mg/day; format: organism-based; settings: in vivo
[47] = species: Homo sapiens; test: Toxicity in HBeAg-positive chronic hepatitis B patient assessed as increase in ALT level at 600 mg/day; format: organism-based; settings: in vivo
[48] = species: Homo sapiens; test: Toxicity in HBeAg-positive chronic hepatitis B patient assessed as insomnia at 600 mg/day; format: organism-based; settings: in vivo
[49] = species: Homo sapiens; test: Toxicity in HBeAg-positive chronic hepatitis B patient assessed as conjunctival hypermia at 600 mg/day; format: organism-based, Conjunctiva; settings: in vivo
[50] = system: Hepatitis B virus; test: Antiviral activity against Hepatitis B virus in HBeAg-positive chronic hepatitis B patient assessed as mean efficiency factor of blocking virus production at 600 mg/day; format: functional
[51] = species: Homo sapiens; test: Toxicity in HBeAg-positive chronic hepatitis B patient assessed as increase in blood CK level at 600 mg/day; format: organism-based; settings: in vivo
[52] = species: Homo sapiens; test: Toxicity in HBeAg-positive chronic hepatitis B patient assessed as upper abdominal pain at 600 mg/day; format: organism-based, Abdomen; settings: in vivo
[53] = species: Homo sapiens; test: Toxicity in HBeAg-positive chronic hepatitis B patient assessed as muscular weakness at 600 mg/day; format: organism-based; settings: in vivo
[54] = species: Homo sapiens; test: Toxicity in HBeAg-positive chronic hepatitis B patient assessed as vaginal hemorrhage at 600 mg/day; format: organism-based; settings: in vivo
[55] = species: Homo sapiens; test: Toxicity in HBeAg-positive chronic hepatitis B patient assessed as nausea at 600 mg/day; format: organism-based; settings: in vivo
[56] = species: Homo sapiens; test: Hepatotoxicity in HBeAg-positive chronic hepatitis B patient assessed as reduction in alanine aminotransferase level at 600 mg/day after 12 weeks (reference value: 163.1 IU/liter); format: toxicity, organism-based; settings: in vivo, 2016 h
[57] = species: Homo sapiens; test: Toxicity in HBeAg-positive chronic hepatitis B patient assessed as gingival bleeding at 600 mg/day; format: organism-based; settings: in vivo
[58] = species: Homo sapiens; test: Toxicity in HBeAg-positive chronic hepatitis B patient assessed as chest discomfort at 600 mg/day; format: organism-based; settings: in vivo
[59] = species: Homo sapiens; test: Toxicity in HBeAg-positive chronic hepatitis B patient assessed as vomiting at 600 mg/day; format: organism-based; settings: in vivo
[60] = system: Hepatitis B virus; test: Antiviral activity against Hepatitis B virus in HBeAg-positive chronic hepatitis B patient assessed as mean viral clearance rate at 600 mg/day; format: functional
[61] = system: Homo sapiens; test: Toxicity in HBeAg-positive chronic hepatitis B patient assessed as facial edema at 600 mg/day; format: organism-based; settings: in vivo
[62] = species: Homo sapiens; test: Toxicity in HBeAg-positive chronic hepatitis B patient assessed as proteinuria at 600 mg/day; format: organism-based; settings: in vivo

Measured: Activity

C=C1[C@H](CO)[C@@H](O)C[C@@H]1n1cnc2c(=O)[nH]c(N)nc21.O [ENTECAVIR]
Non-toxic: [4] | [16]
6.5: [24]
1.002 day⁻¹: [2]
0.071 day⁻¹: [1]
3 patients: [18]
99.2%: [22]
116.3 IU/L: [21]
2%: [17] | [20]
1%: [5] | [8] | [9] | [12] | [14] | [19] | [23] | [25] | [27] | [28] | [30]
0%: [3] | [6] | [7] | [10] | [11] | [13] | [15] | [26] | [29] | [31]

Cc1cn([C@@H]2C[C@@H](O)[C@H](CO)O2)c(=O)[nH]c1=O [TELBIVUDINE]
0.075 day⁻¹: [43]
Non-toxic: [40] | [53]
99.1%: [50]
3%: [47]
0.809 day⁻¹: [60]
108 IU/L: [56]
0%: [34] | [36] | [39] | [45] | [48] | [51] | [54] | [55] | [59] | [61] | [62]
1%: [32] | [33] | [37] | [38] | [41] | [42] | [44] | [46] | [49] | [52] | [57] | [58]
6.6: [35]
